Reference: PubChem BioAssay AID1963973 (Molecular Pharmacology Branch, DTP, NCI, 2024)
Each block holds one compound with its values, some of them ahead of it.

Tested on: 883617-216-R-J1-PDC tumor spheroids, viability
Assay: Anticancer human tumor 883617-216-R-J1-PDC patient-derived bladder carcinoma cell line growth inhibition [PI3K]
Details: spheroids with HUVEC and MSC; for IC50: curve of first compound; for viability, T/C: stronger effect = lower value
Method in brief: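 Agents were dosed from a top concentration near clinical Cmax (otherwise 10 microM) in half-log decrements, alone or combined with PI3K inhibitors. The spheroids contain tumor cells plus endothelial (HUVEC) and MSC stroma; viability is measured.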

[1] = second compound 0.00316 µM, first compound 0.000316 µM
[2] = second compound 0.00316 µM, first compound 0.001 µM
[3] = second compound 0.00316 µM, first compound 0.00316 µM
[4] = second compound 0.00316 µM, first compound 0.01 µM
[5] = second compound 0.00316 µM, first compound 0.0316 µM
[6] = second compound 0.00316 µM, first compound 0.1 µM
[7] = second compound 0.01 µM, first compound 0.000316 µM
[8] = second compound 0.01 µM, first compound 0.001 µM
[9] = second compound 0.01 µM, first compound 0.00316 µM
[10] = second compound 0.01 µM, first compound 0.01 µM
[11] = second compound 0.01 µM, first compound 0.0316 µM
[12] = second compound 0.01 µM, first compound 0.1 µM
[13] = second compound 0.0316 µM, first compound 0.000316 µM
[14] = second compound 0.0316 µM, first compound 0.001 µM
[15] = second compound 0.0316 µM, first compound 0.00316 µM
[16] = second compound 0.0316 µM, first compound 0.01 µM
[17] = second compound 0.0316 µM, first compound 0.0316 µM
[18] = second compound 0.0316 µM, first compound 0.1 µM
[19] = second compound 0.1 µM, first compound 0.000316 µM
[20] = second compound 0.1 µM, first compound 0.001 µM
[21] = second compound 0.1 µM, first compound 0.00316 µM
[22] = second compound 0.1 µM, first compound 0.01 µM
[23] = second compound 0.1 µM, first compound 0.0316 µM
[24] = second compound 0.1 µM, first compound 0.1 µM
[25] = second compound 0.316 µM, first compound 0.000316 µM
[26] = second compound 0.316 µM, first compound 0.001 µM
[27] = second compound 0.316 µM, first compound 0.00316 µM
[28] = second compound 0.316 µM, first compound 0.01 µM
[29] = second compound 0.316 µM, first compound 0.0316 µM
[30] = second compound 0.316 µM, first compound 0.1 µM
[31] = second compound 1 µM, first compound 0.000316 µM
[32] = second compound 1 µM, first compound 0.001 µM
[33] = second compound 1 µM, first compound 0.00316 µM
[34] = second compound 1 µM, first compound 0.01 µM
[35] = second compound 1 µM, first compound 0.0316 µM
[36] = second compound 1 µM, first compound 0.1 µM
[37] = second compound 0.00316 µM, first compound 0.316 µM
[38] = second compound 0.00316 µM, first compound 1 µM
[39] = second compound 0.00316 µM, first compound 3.16 µM
[40] = second compound 0.00316 µM, first compound 10 µM
[41] = second compound 0.01 µM, first compound 0.316 µM
[42] = second compound 0.01 µM, first compound 1 µM
[43] = second compound 0.01 µM, first compound 3.16 µM
[44] = second compound 0.01 µM, first compound 10 µM
[45] = second compound 0.0316 µM, first compound 0.316 µM
[46] = second compound 0.0316 µM, first compound 1 µM
[47] = second compound 0.0316 µM, first compound 3.16 µM
[48] = second compound 0.0316 µM, first compound 10 µM
[49] = second compound 0.1 µM, first compound 0.316 µM
[50] = second compound 0.1 µM, first compound 1 µM
[51] = second compound 0.1 µM, first compound 3.16 µM
[52] = second compound 0.1 µM, first compound 10 µM
[53] = second compound 0.316 µM, first compound 0.316 µM
[54] = second compound 0.316 µM, first compound 1 µM
[55] = second compound 0.316 µM, first compound 3.16 µM
[56] = second compound 0.316 µM, first compound 10 µM
[57] = second compound 1 µM, first compound 0.316 µM
[58] = second compound 1 µM, first compound 1 µM
[59] = second compound 1 µM, first compound 3.16 µM
[60] = second compound 1 µM, first compound 10 µM
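Further: spheroids exposed to agents for 7 days before the viability read.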

- IC50 (second compound 0.00316 µM): 41.2 nM
- IC50 (second compound 0.01 µM): 24.7 nM
- IC50 (second compound 0.0316 µM): < 0.316 nM
- IC50 (second compound 0.1 µM): < 0.316 nM
- IC50 (second compound 0.316 µM): < 0.316 nM
- IC50 (second compound 1 µM): < 0.316 nM
SMILES: CC(=O)c1c(C)c2cnc(Nc3ccc(N4CCNCC4)cn3)nc2n(C2CCCC2)c1=O + COc1c(OCCCN2CCOCC2)ccc2c3n(c(=NC(=O)c4cnc(N)nc4)nc12)CCN3
- viability, T/C [1]: 63.1%
- viability, T/C [2]: 75.6%
- viability, T/C [3]: 92.5%
- viability, T/C [4]: 72.2%
- viability, T/C [5]: 53.3%
- viability, T/C [6]: 39.7%
- viability, T/C [7]: 71.5%
- viability, T/C [8]: 70.5%
- viability, T/C [9]: 61.2%
- viability, T/C [10]: 71.6%
- viability, T/C [11]: 44.9%
- viability, T/C [12]: 26.4%
- viability, T/C [13]: 40.5%
- viability, T/C [14]: 37.6%
- viability, T/C [15]: 30.2%
- viability, T/C [16]: 27.5%
- viability, T/C [17]: 27.1%
- viability, T/C [18]: 21.6%
- viability, T/C [19]: 16.1%
- viability, T/C [20]: 12.2%
- viability, T/C [21]: 11.1%
- viability, T/C [22]: 13%
- viability, T/C [23]: 11.2%
- viability, T/C [24]: 11.8%
- viability, T/C [25]: 4.61%
- viability, T/C [26]: 5.01%
- viability, T/C [27]: 4.74%
- viability, T/C [28]: 3.95%
- viability, T/C [29]: 4.31%
- viability, T/C [30]: 3.85%
- viability, T/C [31]: 3.24%
- viability, T/C [32]: 2.85%
- viability, T/C [33]: 2.99%
- viability, T/C [34]: 3.68%
- viability, T/C [35]: 2.94%
- viability, T/C [36]: 2.98%

- IC50 (second compound 0.00316 µM): 20.1 nM
- IC50 (second compound 0.01 µM): 10.4 nM
- IC50 (second compound 0.0316 µM): < 0.316 nM
- IC50 (second compound 0.1 µM): < 0.316 nM
- IC50 (second compound 0.316 µM): < 0.316 nM
- IC50 (second compound 1 µM): < 0.316 nM
SMILES: CC(C)n1nc(-c2ccc3oc(N)nc3c2)c2c(N)ncnc21 + COc1c(OCCCN2CCOCC2)ccc2c3n(c(=NC(=O)c4cnc(N)nc4)nc12)CCN3
- viability, T/C [1]: 82.6%
- viability, T/C [2]: 73.9%
- viability, T/C [3]: 79.2%
- viability, T/C [4]: 63.6%
- viability, T/C [5]: 40.7%
- viability, T/C [6]: 17.4%
- viability, T/C [7]: 64.9%
- viability, T/C [8]: 61.8%
- viability, T/C [9]: 62.2%
- viability, T/C [10]: 49.2%
- viability, T/C [11]: 33.4%
- viability, T/C [12]: 14.4%
- viability, T/C [13]: 40.3%
- viability, T/C [14]: 34.1%
- viability, T/C [15]: 34.9%
- viability, T/C [16]: 28.6%
- viability, T/C [17]: 18.5%
- viability, T/C [18]: 11.5%
- viability, T/C [19]: 14.7%
- viability, T/C [20]: 15.1%
- viability, T/C [21]: 15.1%
- viability, T/C [22]: 13.2%
- viability, T/C [23]: 8.07%
- viability, T/C [24]: 4.79%
- viability, T/C [25]: 5.33%
- viability, T/C [26]: 5.54%
- viability, T/C [27]: 5.8%
- viability, T/C [28]: 5.35%
- viability, T/C [29]: 4.04%
- viability, T/C [30]: 3.54%
- viability, T/C [31]: 2.62%
- viability, T/C [32]: 3.45%
- viability, T/C [33]: 3.33%
- viability, T/C [34]: 3.45%
- viability, T/C [35]: 3.43%
- viability, T/C [36]: 2.69%

- IC50 (second compound 0.00316 µM): 4090 nM
- IC50 (second compound 0.01 µM): 3650 nM
- IC50 (second compound 0.0316 µM): < 31.6 nM
- IC50 (second compound 0.1 µM): < 31.6 nM
- IC50 (second compound 0.316 µM): < 31.6 nM
- IC50 (second compound 1 µM): < 31.6 nM
SMILES: CCCS(=O)(=O)Nc1ccc(F)c(C(=O)c2c[nH]c3ncc(-c4ccc(Cl)cc4)cc23)c1F + COc1c(OCCCN2CCOCC2)ccc2c3n(c(=NC(=O)c4cnc(N)nc4)nc12)CCN3
- viability, T/C [5]: 78.5%
- viability, T/C [6]: 88.4%
- viability, T/C [37]: 85.1%
- viability, T/C [38]: 77.9%
- viability, T/C [39]: 61.7%
- viability, T/C [40]: 10.4%
- viability, T/C [11]: 67%
- viability, T/C [12]: 72.6%
- viability, T/C [41]: 85.3%
- viability, T/C [42]: 61.7%
- viability, T/C [43]: 56.6%
- viability, T/C [44]: 13.1%
- viability, T/C [17]: 38.8%
- viability, T/C [18]: 45.7%
- viability, T/C [45]: 47%
- viability, T/C [46]: 44.2%
- viability, T/C [47]: 36.9%
- viability, T/C [48]: 12.8%
- viability, T/C [23]: 25%
- viability, T/C [24]: 19.9%
- viability, T/C [49]: 17.6%
- viability, T/C [50]: 17.8%
- viability, T/C [51]: 18%
- viability, T/C [52]: 7.55%
- viability, T/C [29]: 5.17%
- viability, T/C [30]: 7.28%
- viability, T/C [53]: 6.6%
- viability, T/C [54]: 8.36%
- viability, T/C [55]: 9.94%
- viability, T/C [56]: 4.39%
- viability, T/C [35]: 3.48%
- viability, T/C [36]: 4.22%
- viability, T/C [57]: 4.32%
- viability, T/C [58]: 5.19%
- viability, T/C [59]: 6.41%
- viability, T/C [60]: 2.37%

- IC50 (second compound 0.00316 µM): > 10000 nM
- IC50 (second compound 0.01 µM): > 10000 nM
- IC50 (second compound 0.0316 µM): < 31.6 nM
- IC50 (second compound 0.1 µM): < 31.6 nM
- IC50 (second compound 0.316 µM): < 31.6 nM
- IC50 (second compound 1 µM): < 31.6 nM
SMILES: CNC(=O)c1ccc(N2C(=S)N(c3ccc(C#N)c(C(F)(F)F)c3)C(=O)C2(C)C)cc1F + COc1c(OCCCN2CCOCC2)ccc2c3n(c(=NC(=O)c4cnc(N)nc4)nc12)CCN3
- viability, T/C [5]: 72.6%
- viability, T/C [6]: 79.7%
- viability, T/C [37]: 85.4%
- viability, T/C [38]: 87.3%
- viability, T/C [39]: 98.2%
- viability, T/C [40]: 71.9%
- viability, T/C [11]: 61.9%
- viability, T/C [12]: 68.4%
- viability, T/C [41]: 64.3%
- viability, T/C [42]: 63.4%
- viability, T/C [43]: 73.6%
- viability, T/C [44]: 65.6%
- viability, T/C [17]: 29.5%
- viability, T/C [18]: 39%
- viability, T/C [45]: 47.5%
- viability, T/C [46]: 37.7%
- viability, T/C [47]: 35.9%
- viability, T/C [48]: 29%
- viability, T/C [23]: 16.3%
- viability, T/C [24]: 15.1%
- viability, T/C [49]: 19%
- viability, T/C [50]: 17.3%
- viability, T/C [51]: 16.9%
- viability, T/C [52]: 11.9%
- viability, T/C [29]: 10.4%
- viability, T/C [30]: 5.99%
- viability, T/C [53]: 4.55%
- viability, T/C [54]: 5.36%
- viability, T/C [55]: 5.23%
- viability, T/C [56]: 4.37%
- viability, T/C [35]: 3.25%
- viability, T/C [36]: 3.07%
- viability, T/C [57]: 2.92%
- viability, T/C [58]: 3.17%
- viability, T/C [59]: 4.14%
- viability, T/C [60]: 3.08%
